Data as given in ChEMBL document CHEMBL4138123, “Design, synthesis and biological evaluation of novel pyrazolochalcones as potential modulators of PI3K/Akt/mTOR pathway and inducers of apoptosis in breast cancer cells” (Eur J Med Chem, 2017).

Legend:
Format in all cases: functional
[1] = system: MOLT-4; assay: Cytotoxicity against human MOLT4 cells assessed as growth inhibition after 48 hrs by sulforhodamine B assay; details: MOLT-4, 48 h; for CC50: read-out: LC50 (the source's name)
[2] = system: HOP-62; assay: Cytotoxicity against human HOP62 cells assessed as growth inhibition after 48 hrs by sulforhodamine B assay; details: HOP-62, 48 h
[3] = system: NCI-H226; assay: Cytotoxicity against human NCI-H226 cells assessed as growth inhibition after 48 hrs by sulforhodamine B assay; details: NCI-H226, 48 h
[4] = system: HT-29; assay: Cytotoxicity against human HT-29 cells assessed as growth inhibition after 48 hrs by sulforhodamine B assay; details: HT-29, 48 h
[5] = system: OVCAR-5; assay: Cytotoxicity against human OVCAR5 cells assessed as growth inhibition after 48 hrs by sulforhodamine B assay; details: OVCAR-5, 48 h
[6] = system: SK-OV-3; assay: Cytotoxicity against human SKOV3 cells assessed as growth inhibition after 48 hrs by sulforhodamine B assay; details: SK-OV-3, 48 h
[7] = system: A498; assay: Cytotoxicity against human A498 cells assessed as growth inhibition after 48 hrs by sulforhodamine B assay; details: A498, 48 h
[8] = system: MCF7; assay: Cytotoxicity against human MCF7 cells assessed as growth inhibition after 48 hrs by sulforhodamine B assay; details: MCF7, 48 h
[9] = system: IGROV-1; assay: Cytotoxicity against human IGROV1 cells assessed as cell growth at 0.01 uM after 48 hrs by sulforhodamine B assay relative to control; details: IGROV-1, 48 h, read-out: Activity
[10] = system: SF-539; assay: Cytotoxicity against human SF539 cells assessed as cell growth at 0.01 uM after 48 hrs by sulforhodamine B assay relative to control; details: SF-539, 48 h, read-out: Activity
[11] = system: NCI-H23; assay: Cytotoxicity against human NCI-H23 cells assessed as cell growth at 0.01 uM after 48 hrs by sulforhodamine B assay relative to control; details: NCI-H23, 48 h, read-out: Activity
[12] = system: HOP-62; assay: Cytotoxicity against human HOP62 cells assessed as cell growth at 0.01 uM after 48 hrs by sulforhodamine B assay relative to control; details: HOP-62, 48 h, read-out: Activity
[13] = system: SN12C; assay: Cytotoxicity against human SN12C cells assessed as cell growth at 0.01 uM after 48 hrs by sulforhodamine B assay relative to control; details: read-out: Activity
[14] = system: CCRF-CEM; assay: Cytotoxicity against human CCRF-CEM cells assessed as cell growth at 0.1 uM after 48 hrs by sulforhodamine B assay relative to control; details: read-out: Activity
[15] = system: NCI-H522; assay: Cytotoxicity against human NCI-H522 cells assessed as cell growth at 0.1 uM after 48 hrs by sulforhodamine B assay relative to control; details: NCI-H522, 48 h, read-out: Activity
[16] = system: KM12; assay: Cytotoxicity against human KM12 cells assessed as cell growth at 0.1 uM after 48 hrs by sulforhodamine B assay relative to control; details: KM12, 48 h, read-out: Activity
[17] = system: OVCAR-4; assay: Cytotoxicity against human OVCAR4 cells assessed as cell growth at 0.1 uM after 48 hrs by sulforhodamine B assay relative to control; details: OVCAR-4, 48 h, read-out: Activity
[18] = system: NCI/ADR-RES; assay: Cytotoxicity against human NCI/ADR-RES cells assessed as cell growth at 0.1 uM after 48 hrs by sulforhodamine B assay relative to control; details: read-out: Activity
[19] = system: HL-60(TB); assay: Cytotoxicity against human HL-60(TB) cells assessed as cell growth at 1 uM after 48 hrs by sulforhodamine B assay relative to control; details: HL-60, 48 h, read-out: Activity
[20] = system: HCC 2998; assay: Cytotoxicity against human HCC2998 cells assessed as cell growth at 1 uM after 48 hrs by sulforhodamine B assay relative to control; details: HCC 2998, 48 h, read-out: Activity
[21] = system: HCT-116; assay: Cytotoxicity against human HCT116 cells assessed as cell growth at 1 uM after 48 hrs by sulforhodamine B assay relative to control; details: HCT-116, 48 h, read-out: Activity
[22] = system: BT-549; assay: Cytotoxicity against human BT549 cells assessed as cell growth at 1 uM after 48 hrs by sulforhodamine B assay relative to control; details: BT-549, 48 h, read-out: Activity
[23] = system: NCI-H460; assay: Cytotoxicity against human NCI-H460 cells assessed as cell growth at 10 uM after 48 hrs by sulforhodamine B assay relative to control; details: NCI-H460, 48 h, read-out: Activity
[24] = system: HCC 2998; assay: Cytotoxicity against human HCC2998 cells assessed as cell growth at 10 uM after 48 hrs by sulforhodamine B assay relative to control; details: HCC 2998, 48 h, read-out: Activity
[25] = system: HCT-15; assay: Cytotoxicity against human HCT15 cells assessed as cell growth at 10 uM after 48 hrs by sulforhodamine B assay relative to control; details: HCT-15, 48 h, read-out: Activity
[26] = system: SF-539; assay: Cytotoxicity against human SF539 cells assessed as cell growth at 10 uM after 48 hrs by sulforhodamine B assay relative to control; details: SF-539, 48 h, read-out: Activity
[27] = system: ACHN; assay: Cytotoxicity against human ACHN cells assessed as cell growth at 10 uM after 48 hrs by sulforhodamine B assay relative to control; details: read-out: Activity
[28] = system: MDA-MB-231; assay: Cytotoxicity against human MDA-MB-231 cells assessed as cell growth at 10 uM after 48 hrs by sulforhodamine B assay relative to control; details: MDA-MB-231, 48 h, read-out: Activity
[29] = system: HL-60(TB); assay: Cytotoxicity against human HL-60(TB) cells assessed as cell growth at 100 uM after 48 hrs by sulforhodamine B assay relative to control; details: HL-60, 48 h, read-out: Activity
[30] = system: HOP-62; assay: Cytotoxicity against human HOP62 cells assessed as cell growth at 100 uM after 48 hrs by sulforhodamine B assay relative to control; details: HOP-62, 48 h, read-out: Activity
[31] = system: NCI-H460; assay: Cytotoxicity against human NCI-H460 cells assessed as cell growth at 100 uM after 48 hrs by sulforhodamine B assay relative to control; details: NCI-H460, 48 h, read-out: Activity
[32] = system: SK-MEL-28; assay: Cytotoxicity against human SK-MEL-28 cells assessed as cell growth at 100 uM after 48 hrs by sulforhodamine B assay relative to control; details: SK-MEL-28, 48 h, read-out: Activity
[33] = system: ACHN; assay: Cytotoxicity against human ACHN cells assessed as cell growth at 100 uM after 48 hrs by sulforhodamine B assay relative to control; details: read-out: Activity

`COc1cc(-c2cc(/C=C/C(=O)c3ccc(F)c(F)c3)[nH]n2)cc(OC)c1OC` was tested, and the TGI [1] was 9.09 µM, the CC50 [1] was > 100 µM and the LC50 [2] was > 100 µM. The TGI [2] was > 100 µM, the LC50 (concentration killing 50% of cells) [3] was 66 µM and the TGI [3] was 15.8 µM. The LC50 [4] was 40.8 µM, the TGI [4] was 6.46 µM and the LC50 [5] was > 100 µM. The TGI [5] was 33.8 µM, the LC50 [6] was > 100 µM and the TGI [6] was 58.6 µM. The LC50 [7] was > 100 µM, the TGI [7] was 7.13 µM and the LC50 [8] was > 100 µM. The TGI [8] was 12.3 µM, the growth at 0.01 µM [9] was 97% and the growth at 0.01 µM [10] was 100%. It also gave a growth at 0.01 µM [11] of 95%, a growth at 0.01 µM [12] of 100% and a growth at 0.01 µM [13] of 95%. The growth at 0.1 µM [14] was 96%, the growth at 0.1 µM [15] was 99% and the growth at 0.1 µM [16] was 92%. For the same compound, the growth at 0.1 µM [17] was 111%, the growth at 0.1 µM [18] was 98% and the growth at 1 µM [19] was 101%. The growth at 1 µM [20] was 99%, the growth at 1 µM [21] was 113% and the growth at 1 µM [22] was 92%. For the same compound, the growth at 10 µM [23] was -9%, the growth at 10 µM [24] was 13% and the growth at 10 µM [25] was 9%. It also gave a growth at 10 µM [26] of 21%, a growth at 10 µM [27] of 2% and a growth at 10 µM [28] of -38%. For the same compound, the growth at 100 µM [29] was -49%, the growth at 100 µM [30] was 4% and the growth at 100 µM [31] was -54%. The growth at 100 µM [32] was -39%.

In the case of `COc1ccc(-c2cc(/C=C/C(=O)c3ccc4c(c3)OCO4)[nH]n2)cc1OC`, the GI50 [1] is reported as 2.2 µM, the GI50 [2] is reported as 1.73 µM and the GI50 [3] is reported as 1.66 µM. It also gave a GI50 [4] of 1.38 µM, a GI50 [5] of 1.76 µM and a GI50 [6] of 3.13 µM. The GI50 [7] was 1.27 µM and the GI50 [8] was 0.93 µM.

With `COc1cc(C(=O)/C=C/c2cc(-c3cc(OC)c(OC)c(OC)c3)n[nH]2)cc(OC)c1OC` the TGI [1] was 8.95 µM, the CC50 [1] was > 100 µM and the LC50 [2] was 5.74 µM. For the same compound, the TGI [2] was 2.89 µM, the TGI [3] was 3.05 µM and the LC50 [4] was 6.36 µM. It also gave a TGI [4] of 3.37 µM, an LC50 [5] of 5.92 µM and a TGI [5] of 3.12 µM. For the same compound, the LC50 [6] was 33.4 µM, the TGI [6] was 11.1 µM and the LC50 [7] was 8.02 µM. The TGI [7] was 3.59 µM, the LC50 [8] was 5.22 µM and the TGI [8] was 2.07 µM. For the same compound, the growth at 0.01 µM [9] was 104%, the growth at 0.01 µM [10] was 92% and the growth at 0.01 µM [11] was 100%. For the same compound, the growth at 0.01 µM [12] was 97%, the growth at 0.01 µM [13] was 96% and the growth at 0.1 µM [14] was 94%. The growth at 0.1 µM [15] was 103%, the growth at 0.1 µM [16] was 103% and the growth at 0.1 µM [17] was 95%. It also gave a growth at 0.1 µM [18] of 106%, a growth at 1 µM [19] of 81% and a growth at 1 µM [20] of 99%. The growth at 1 µM [21] was 70%, the growth at 1 µM [22] was 85% and the growth at 10 µM [23] was -51%. The growth at 10 µM [24] was -87%, the growth at 10 µM [25] was -71% and the growth at 10 µM [26] was -80%. The growth at 10 µM [27] was -97%, the growth at 10 µM [28] was -53% and the growth at 100 µM [29] was -33%. The growth at 100 µM [30] was -100%, the growth at 100 µM [31] was -55% and the growth at 100 µM [32] was -97%. It also gave a growth at 100 µM [33] of -98%.

`COc1cc(-c2cc(/C=C/C(=O)c3ccc(Cl)c(Cl)c3)[nH]n2)cc(OC)c1OC` was tested, and the TGI [1] was 40.6 µM, the CC50 [1] was > 100 µM and the LC50 [2] was 42.6 µM. For the same compound, the TGI [2] was 7.66 µM, the LC50 (concentration killing 50% of cells) [3] was > 100 µM and the TGI [3] was > 100 µM. For the same compound, the LC50 [4] was > 100 µM, the TGI [4] was > 100 µM and the LC50 [5] was > 100 µM. For the same compound, the TGI [5] was > 100 µM, the LC50 [6] was 62.5 µM and the TGI [6] was 18.8 µM. The LC50 [7] was > 100 µM, the TGI [7] was 43 µM and the LC50 [8] was > 100 µM. The TGI [8] was > 100 µM, the growth at 0.01 µM [9] was 97% and the growth at 0.01 µM [10] was 93%. The growth at 0.01 µM [11] was 95%, the growth at 0.01 µM [12] was 99% and the growth at 0.01 µM [13] was 98%. For the same compound, the growth at 0.1 µM [14] was 98%, the growth at 0.1 µM [15] was 89% and the growth at 0.1 µM [16] was 93%. The growth at 0.1 µM [17] was 106%, the growth at 0.1 µM [18] was 96% and the growth at 1 µM [19] was 90%. It also gave a growth at 1 µM [20] of 102%, a growth at 1 µM [21] of 80% and a growth at 1 µM [22] of 92%. It also gave a growth at 10 µM [23] of 31%, a growth at 10 µM [24] of 49% and a growth at 10 µM [25] of 29%. It also gave a growth at 10 µM [26] of 28%, a growth at 10 µM [27] of 67% and a growth at 10 µM [28] of 47%. The growth at 100 µM [29] was -33%, the growth at 100 µM [30] was -74% and the growth at 100 µM [31] was -24%. It also gave a growth at 100 µM [32] of -16% and a growth at 100 µM [33] of 16%.
